Results taken from PMC5509550, “Development of a Novel Lead that Targets M. tuberculosis Polyketide Synthase 13” (Cell, 2017).

Tests used:
M. tuberculosis Erdman = tested on: M. tuberculosis Erdman; parameters: species or system Mycobacterium tuberculosis; conditions: in vivo
Mtb mc^27000 = assay: microbe, parasite or virus in culture; format: cell-based, Mycobacterium tuberculosis

CO[C@H]1/C=C/O[C@@]2(C)Oc3c(C)c(O)c4c(O)c(c(/C=N/N5CCN(C)CC5)c(O)c4c3C2=O)NC(=O)/C(C)=C\C=C\[C@H](C)[C@H](O)[C@@H](C)[C@@H](O)[C@@H](C)[C@H](OC(C)=O)[C@@H]1C [RIF, Rifampicin]
CFU reduction in lungs compared to untreated control (M. tuberculosis Erdman): ~2.4 log10 CFU | MIC of RIF in combination (Mtb mc^27000): 0.011 µM | improvement of MIC of RIF in combination (Mtb mc^27000): ~3 fold | MIC (Mtb mc^27000; Mycobacterium tuberculosis, read-out: MIC of the drug alone): 0.35 µM
